From paper PMC11584650, “An inhibitory segment within G-patch activators tunes Prp43-ATPase activity during ribosome assembly” (Nature Communications, 2024)

Legend:
Prp43:Tma23^M = biological target: T1, Prp43:Tma23^M (Saccharomyces cerevisiae, UniProt P53131); assay: pyruvate kinase/lactate dehydrogenase coupled NADH assay, Michaelis-Menten fit; format: biochemical; details: no RNA; 20 mM MgCl2, 50 mM Hepes pH 7.5, 200 mM KCl, room temperature, ATP up to 2.5 mM
T1 construct: 1:1 complex of Prp43 with the middle (I-patch containing) domain of Tma23, co-expressed in E. coli; with Protein TMA23
T1 sequence (P53131 whole entry): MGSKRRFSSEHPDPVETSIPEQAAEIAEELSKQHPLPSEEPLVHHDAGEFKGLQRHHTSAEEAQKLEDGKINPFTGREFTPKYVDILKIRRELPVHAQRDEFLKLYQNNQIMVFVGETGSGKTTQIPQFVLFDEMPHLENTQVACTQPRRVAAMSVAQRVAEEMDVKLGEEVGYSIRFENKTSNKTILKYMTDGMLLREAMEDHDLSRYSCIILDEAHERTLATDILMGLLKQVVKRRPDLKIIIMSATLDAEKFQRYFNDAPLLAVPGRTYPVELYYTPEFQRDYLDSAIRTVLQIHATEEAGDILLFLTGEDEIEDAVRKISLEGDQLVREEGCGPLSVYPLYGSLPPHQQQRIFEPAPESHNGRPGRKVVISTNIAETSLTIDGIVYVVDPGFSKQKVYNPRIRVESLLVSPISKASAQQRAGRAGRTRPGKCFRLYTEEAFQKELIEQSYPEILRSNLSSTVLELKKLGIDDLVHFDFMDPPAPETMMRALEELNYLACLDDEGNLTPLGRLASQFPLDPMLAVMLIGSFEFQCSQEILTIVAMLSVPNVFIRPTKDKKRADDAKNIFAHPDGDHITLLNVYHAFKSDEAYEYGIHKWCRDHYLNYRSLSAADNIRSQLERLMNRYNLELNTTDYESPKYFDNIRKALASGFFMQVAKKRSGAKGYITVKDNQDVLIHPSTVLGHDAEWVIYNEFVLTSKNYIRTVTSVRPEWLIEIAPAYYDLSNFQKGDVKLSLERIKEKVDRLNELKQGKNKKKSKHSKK
T1 sequence (Q03525 whole entry partner): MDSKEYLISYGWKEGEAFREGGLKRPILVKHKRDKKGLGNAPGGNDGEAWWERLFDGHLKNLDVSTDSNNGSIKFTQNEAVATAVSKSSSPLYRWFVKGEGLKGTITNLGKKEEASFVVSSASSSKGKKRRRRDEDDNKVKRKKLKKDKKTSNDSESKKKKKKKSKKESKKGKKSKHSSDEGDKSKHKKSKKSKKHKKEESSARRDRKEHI
From the text: pyruvate kinase/lactate dehydrogenase coupled NADH assay, Michaelis-Menten fit on Prp43:Tma23^M | We obtained kinetic parameters for the ATPase activities of Prp43, Prp43:Tma23^M and Ppr43:Pxr1^M complexes

Prp43:Pxr1^GM = biological target: T2, Prp43:Pxr1^GM (Saccharomyces cerevisiae, UniProt P53131); assay: pyruvate kinase/lactate dehydrogenase coupled NADH assay, initial rate; format: biochemical; details: 2.5 mM ATP, no RNA; 20 mM MgCl2, 50 mM Hepes pH 7.5, 200 mM KCl, room temperature
T2 construct: full-length Prp43 with G-patch plus middle domain of Pxr1 (137 residues), co-expressed in E. coli; resolved Prp43 52-718 and Pxr1 122-136; with Protein PXR1
T2 sequence (P53131 whole entry, the tested form may be a part): as the sequence (P53131 whole entry) above
T2 sequence (P53335 1-137 partner): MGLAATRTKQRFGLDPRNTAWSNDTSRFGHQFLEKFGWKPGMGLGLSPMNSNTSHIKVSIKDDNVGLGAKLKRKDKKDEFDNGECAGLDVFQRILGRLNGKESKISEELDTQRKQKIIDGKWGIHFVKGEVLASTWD

- Km (Prp43:Tma23^M): 34 ± 4.56 µM
SMILES: Nc1ncnc2c1ncn2[C@@H]1O[C@H](COP(=O)(O)OP(=O)(O)OP(=O)(O)O)[C@@H](O)[C@H]1O [ATP]
- pyruvate kinase/lactate dehydrogenase coupled NADH assay, initial rate (Prp43:Pxr1^GM): Pxr1^GM, Pxr1^GM-L33E, and Pxr1^M were co-expressed with Prp43
